How the values were obtained:
[1] = target: T1, Protein cereblon/Interleukin-1 receptor-associated kinase 4 (Homo sapiens, UniProt Q9NWZ3+Q96SW2); experiment: PROTAC activity at CRBN/IRAK4 in human THP-1 cells assessed as induction of IRAK4 degradation incubated for 24 hrs by HiBiT lytic reagent based analysis; assay type: cell-based
Target sequence in this assay (Q9NWZ3 whole entry): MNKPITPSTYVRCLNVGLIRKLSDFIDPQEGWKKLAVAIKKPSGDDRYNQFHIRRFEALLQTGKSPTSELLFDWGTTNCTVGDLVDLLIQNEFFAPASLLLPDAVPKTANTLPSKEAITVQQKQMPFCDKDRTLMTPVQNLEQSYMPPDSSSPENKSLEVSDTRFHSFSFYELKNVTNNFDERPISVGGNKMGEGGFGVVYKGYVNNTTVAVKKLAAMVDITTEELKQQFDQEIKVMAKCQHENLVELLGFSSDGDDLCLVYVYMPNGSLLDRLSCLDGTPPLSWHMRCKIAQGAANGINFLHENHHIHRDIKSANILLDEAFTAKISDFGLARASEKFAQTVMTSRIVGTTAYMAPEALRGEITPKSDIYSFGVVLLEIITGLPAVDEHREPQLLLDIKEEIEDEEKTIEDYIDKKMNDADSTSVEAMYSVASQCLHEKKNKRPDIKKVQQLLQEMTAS
Target sequence in this assay (Q96SW2 whole entry): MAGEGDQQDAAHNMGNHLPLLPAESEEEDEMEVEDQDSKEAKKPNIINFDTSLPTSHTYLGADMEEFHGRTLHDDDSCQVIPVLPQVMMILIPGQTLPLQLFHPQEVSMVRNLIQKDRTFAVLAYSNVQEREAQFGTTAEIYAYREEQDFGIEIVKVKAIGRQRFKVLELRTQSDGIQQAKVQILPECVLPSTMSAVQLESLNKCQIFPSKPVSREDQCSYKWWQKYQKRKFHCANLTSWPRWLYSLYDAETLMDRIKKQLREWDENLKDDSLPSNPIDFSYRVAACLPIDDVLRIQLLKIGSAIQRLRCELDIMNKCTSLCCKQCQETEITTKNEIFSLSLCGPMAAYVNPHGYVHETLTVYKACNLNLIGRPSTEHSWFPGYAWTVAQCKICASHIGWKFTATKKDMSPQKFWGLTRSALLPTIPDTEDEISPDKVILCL

[2] = target: T1, Protein cereblon/Interleukin-1 receptor-associated kinase 4; experiment: PROTAC activity at CRBN/IRAK4 in human THP-1 cells assessed as induction of IRAK4 degradation incubated for 24 hrs by HiBiT lytic reagent based analysis relative to control; assay type: cell-based
Target sequence in this assay (Q96SW2 whole entry, looked up): as the sequence (Q96SW2 whole entry) above
Target sequence in this assay (Q9NWZ3 whole entry, looked up): as the sequence (Q9NWZ3 whole entry) above

[3] = Metabolic stability in human liver microsome assessed as half life at 1 uM measured up to 60 mins in presence of NADPH by LC-MS/MS analysis; assay type: ADME; details: liver microsomes
[4] = Metabolic stability in dog liver microsome assessed as half life at 1 uM measured up to 60 mins in presence of NADPH by LC-MS/MS analysis; assay type: ADME, Canis lupus familiaris; details: liver microsomes
[5] = Metabolic stability in mouse liver microsome assessed as half life at 1 uM measured up to 60 mins in presence of NADPH by LC-MS/MS analysis; assay type: ADME; details: liver microsomes
hERG (KCNH2) [6] = target: T2, hERG (KCNH2) (Homo sapiens, UniProt Q12809); experiment: Inhibition of hERG expressed in HEK293 cells at 1 uM by manual patch clamp assay relative to control; assay type: toxicity, cell-based; details: HEK293 cells expressing hERG
[7] = Cmax in male C57BL/6 mouse at 2 mg/kg, iv measured up to 24 hrs by LC-MS/MS analysis; assay type: ADME, organism-based; details: in vivo
[8] = AUClast in male C57BL/6 mouse at 2 mg/kg, iv measured up to 24 hrs by LC-MS/MS analysis; assay type: ADME, organism-based; details: in vivo
[9] = Half life in male C57BL/6 mouse at 2 mg/kg, iv measured up to 24 hrs by LC-MS/MS analysis; assay type: ADME, organism-based; details: in vivo
[10] = Clearance in male C57BL/6 mouse at 2 mg/kg, iv measured up to 24 hrs by LC-MS/MS analysis; assay type: ADME, organism-based; details: in vivo
[11] = Volume of distribution at steady state in male C57BL/6 mouse at 2 mg/kg, iv measured up to 24 hrs by LC-MS/MS analysis; assay type: ADME, organism-based; details: in vivo, read-out: Vdss
[12] = Tmax in male C57BL/6 mouse at 10 mg/kg, po measured up to 24 hrs by LC-MS/MS analysis; assay type: ADME, organism-based; details: in vivo
[13] = Cmax in male C57BL/6 mouse at 10 mg/kg, po measured up to 24 hrs by LC-MS/MS analysis; assay type: ADME, organism-based; details: in vivo
[14] = AUClast in male C57BL/6 mouse at 10 mg/kg, po measured up to 24 hrs by LC-MS/MS analysis; assay type: ADME, organism-based; details: in vivo
[15] = Half life in male C57BL/6 mouse at 10 mg/kg, po measured up to 24 hrs by LC-MS/MS analysis; assay type: ADME, organism-based; details: in vivo
[16] = Oral bioavailability in male C57BL/6 mouse at 10 mg/kg measured up to 24 hrs by LC-MS/MS analysis; assay type: ADME, organism-based; details: in vivo
[17] = Cmax in Sprague-Dawley rat at 2 mg/kg, iv measured up to 24 hrs by LC-MS/MS analysis; assay type: ADME, organism-based; details: in vivo
[18] = AUClast in Sprague-Dawley rat at 2 mg/kg, iv measured up to 24 hrs by LC-MS/MS analysis; assay type: ADME, organism-based; details: in vivo
[19] = Half life in Sprague-Dawley rat at 2 mg/kg, iv measured up to 24 hrs by LC-MS/MS analysis; assay type: ADME, organism-based; details: in vivo
[20] = Clearance in Sprague-Dawley rat at 2 mg/kg, iv measured up to 24 hrs by LC-MS/MS analysis; assay type: ADME, organism-based; details: in vivo
[21] = Volume of distribution at steady state in Sprague-Dawley rat at 2 mg/kg, iv measured up to 24 hrs by LC-MS/MS analysis; assay type: ADME, organism-based; details: in vivo, read-out: Vdss
[22] = Tmax in Sprague-Dawley rat at 10 mg/kg, po measured up to 24 hrs by LC-MS/MS analysis; assay type: ADME, organism-based; details: in vivo
[23] = Cmax in Sprague-Dawley rat at 10 mg/kg, po measured up to 24 hrs by LC-MS/MS analysis; assay type: ADME, organism-based; details: in vivo
[24] = AUClast in Sprague-Dawley rat at 10 mg/kg, po measured up to 24 hrs by LC-MS/MS analysis; assay type: ADME, organism-based; details: in vivo
[25] = Half life in Sprague-Dawley rat at 10 mg/kg, po measured up to 24 hrs by LC-MS/MS analysis; assay type: ADME, organism-based; details: in vivo
[26] = Oral bioavailability in Sprague-Dawley rat at 10 mg/kg measured up to 24 hrs by LC-MS/MS analysis; assay type: ADME, organism-based; details: in vivo
hERG (KCNH2) [27] = target: T2, hERG (KCNH2); experiment: Inhibition of hERG expressed in HEK293 cells at 3 uM by manual patch clamp assay relative to control; assay type: toxicity, cell-based; details: HEK293 cells expressing hERG
[28] = target: Voltage-gated inwardly rectifying potassium channel KCNH2 (Homo sapiens, UniProt Q12809); experiment: Inhibition of hERG expressed in HEK293 cells by manual patch clamp assay; assay type: toxicity, cell-based; parameters: concentration or dose not given beside the values
[29] = Metabolic stability in cynomolgus monkey liver microsome assessed as half life at 1 uM measured up to 60 mins in presence of NADPH by LC-MS/MS analysis; assay type: ADME, Macaca fascicularis; details: liver microsomes
[30] = Metabolic stability in rat liver microsome assessed as half life at 1 uM measured up to 60 mins in presence of NADPH by LC-MS/MS analysis; assay type: ADME; details: liver microsomes

T2 sequence (Q12809 whole entry): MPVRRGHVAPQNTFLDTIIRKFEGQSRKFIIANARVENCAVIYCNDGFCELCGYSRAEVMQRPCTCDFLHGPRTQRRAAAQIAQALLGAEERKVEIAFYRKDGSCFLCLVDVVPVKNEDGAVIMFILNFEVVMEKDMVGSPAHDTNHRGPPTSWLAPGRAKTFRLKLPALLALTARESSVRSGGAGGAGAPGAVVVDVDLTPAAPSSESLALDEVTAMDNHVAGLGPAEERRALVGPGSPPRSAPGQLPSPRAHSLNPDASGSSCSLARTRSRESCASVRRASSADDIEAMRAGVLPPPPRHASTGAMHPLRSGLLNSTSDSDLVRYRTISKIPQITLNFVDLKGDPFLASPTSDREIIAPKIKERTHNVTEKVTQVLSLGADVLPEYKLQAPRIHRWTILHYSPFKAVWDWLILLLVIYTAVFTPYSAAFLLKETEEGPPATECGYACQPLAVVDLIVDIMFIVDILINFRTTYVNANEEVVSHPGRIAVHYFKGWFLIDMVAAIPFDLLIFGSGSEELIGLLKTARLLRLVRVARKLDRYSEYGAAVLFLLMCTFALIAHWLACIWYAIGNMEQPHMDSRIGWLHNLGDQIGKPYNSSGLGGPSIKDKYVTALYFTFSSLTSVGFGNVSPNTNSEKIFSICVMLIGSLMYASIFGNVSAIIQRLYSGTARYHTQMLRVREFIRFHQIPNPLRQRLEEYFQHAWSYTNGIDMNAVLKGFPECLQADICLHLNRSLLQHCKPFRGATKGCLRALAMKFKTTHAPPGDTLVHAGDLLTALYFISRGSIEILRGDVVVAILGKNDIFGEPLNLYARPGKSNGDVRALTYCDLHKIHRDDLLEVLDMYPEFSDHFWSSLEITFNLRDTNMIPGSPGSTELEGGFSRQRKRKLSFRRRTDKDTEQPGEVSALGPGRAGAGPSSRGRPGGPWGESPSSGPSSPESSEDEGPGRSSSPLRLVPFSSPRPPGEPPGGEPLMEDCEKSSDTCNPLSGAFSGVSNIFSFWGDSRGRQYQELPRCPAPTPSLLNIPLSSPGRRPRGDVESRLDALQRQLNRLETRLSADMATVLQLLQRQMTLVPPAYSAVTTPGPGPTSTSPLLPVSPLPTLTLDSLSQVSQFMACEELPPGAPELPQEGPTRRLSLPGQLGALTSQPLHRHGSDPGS
Voltage-gated inwardly rectifying potassium channel KCNH2, sequence (Q12809 whole entry): as above

Row | Compound | DC50 [1] | Emax [2] | half-life at 1 µM [3] | half-life at 1 µM [4] | half-life at 1 µM [5] | inhibition at 1 µM (hERG (KCNH2) [6]) | inhibition at 3 µM (hERG (KCNH2) [27]) | inhibition (INH) [28] | also measured
1 | Cn1c(=O)n(C2CCC(=O)NC2=O)c2cccc(C#CCO[C@H]3CC[C@H](CN4CCC5(CC4)Cc4cc(NC(=O)c6cnn7cc(F)cnc67)c(N6CCC(CO)CC6)cc4O5)CC3)c21 (stereo not given in full) | 2.24 nM | 87% | > 3.07 h | > 3.07 h | > 3.07 h | 36% |  |  | Cmax [7]: 1380 ng/mL; AUC(0-t) at 24 h [8]: 11700 ng·h/mL; half-life [9]: 4.07 h; clearance [10]: 2.83 mL/min/kg; Vd [11]: 0.96 L/kg; Tmax [12]: 4 h; Cmax [13]: 2280 ng/mL; AUC(0-t) at 24 h [14]: 27000 ng·h/mL; half-life [15]: 4.27 h; bioavailability [16]: 47%; Cmax [17]: 243 ng/mL; AUClast [18]: 424 ng·h/mL; half-life [19]: 3.14 h; clearance [20]: 12.4 mL/min/kg; Vd [21]: 3.12 L/kg; Tmax [22]: 6 h; Cmax [23]: 628 ng/mL; AUClast [24]: 8344 ng·h/mL; half-life [25]: 2.94 h; F [26]: 21%
2 | Cn1c(=O)n(C2CCC(=O)NC2=O)c2cccc(C#CCOC3CCN(CC(=O)N4CCC5(CC4)Cc4cc(NC(=O)c6cnn7cccnc67)c(N6CCC(CO)CC6)cc4O5)CC3)c21 (stereo not given) | 2.18 nM |  | 0.15 h | 0.2 h | 1.67 h |  | 8% |  | 
3 | Cn1c(=O)n(C2CCC(=O)NC2=O)c2cccc(C#CCN3CCN(CC(=O)N4CCC5(CC4)Cc4cc(NC(=O)c6cnn7cccnc67)c(N6CCC(CO)CC6)cc4O5)CC3)c21 (stereo not given) | 2.76 nM |  | 0.05 h | 1.22 h | 1.4 h |  | 18% |  | 
4 | Cn1c(=O)n(C2CCC(=O)NC2=O)c2cccc(C#CCO[C@H]3CC[C@H](CN4CCC5(CC4)Cc4cc(NC(=O)c6cnn7cc(CO)cnc67)c(N6CCC(CO)CC6)cc4O5)CC3)c21 (stereo not given in full) | 3.32 nM | 90% | > 3.07 h | > 3.07 h | 1.3 h | 4% |  |  | half-life at 1 µM [29]: > 3.07 h; half-life at 1 µM [30]: > 3.07 h

The next compounds have a lower DC50 [1] than those just listed; values first:

Row | DC50 [1] | Emax [2] | half-life at 1 µM [3] | half-life at 1 µM [4] | half-life at 1 µM [5] | Compound | inhibition at 1 µM (hERG (KCNH2) [6]) | inhibition at 3 µM (hERG (KCNH2) [27]) | inhibition (INH) [28] | also measured
5 | 1.17 nM | 89% |  |  |  | Cn1c(=O)n(C2CCC(=O)NC2=O)c2cccc(C#CCOCCNCCN3CCC4(CC3)Cc3cc(NC(=O)c5cnn6cccnc56)c(N5CCC(CO)CC5)cc3O4)c21 (stereo not given) |  |  | 8% | 
6 | 1.52 nM | 87% | > 3.07 h | > 3.07 h | > 3.07 h | Cc1cnc2c(C(=O)Nc3cc4c(cc3N3CCC(CO)CC3)OC3(CCN(C[C@H]5CC[C@H](OCC#Cc6cccc7c6n(C)c(=O)n7C6CCC(=O)NC6=O)CC5)CC3)C4)cnn2c1 (stereo not given in full) |  | 17% |  | 
7 | 2 nM | 84% | 1.67 h | > 3.07 h | > 3.07 h | Cn1c(=O)n(C2CCC(=O)NC2=O)c2cccc(C#CCO[C@H]3CC[C@H](CN4CCC5(Cc6cc(NC(=O)c7cnn8cccnc78)c(N7CCC(CO)CC7)cc6O5)C4)CC3)c21 (stereo not given in full) | 1% |  |  | 
8 | 1.66 nM | 95% |  |  |  | Cn1c(=O)n(C2CCC(=O)NC2=O)c2cccc(CN3CC4(CCN(CCN5CCC6(CC5)Cc5cc(NC(=O)c7cnn8cccnc78)c(N7CCC(CO)CC7)cc5O6)CC4)C3)c21 (stereo not given) |  |  | 6% | 
9 | 1.53 nM | 95% | 0.833 h | > 3.07 h | 0.65 h | Cn1c(=O)n(C2CCC(=O)NC2=O)c2cccc(CN3CCC4(CC3)CN(CCN3CCC5(CC3)Cc3cc(NC(=O)c6cnn7cccnc67)c(N6CCC(CO)CC6)cc3O5)C4)c21 (stereo not given) |  |  | 34% | half-life at 1 µM [29]: 1.17 h; half-life at 1 µM [30]: 0.7 h
